According to patent publication US7812022B2 (GlaxoSmithKline LLC, priority 2004, dated 2010):

Columns and labels:
[1] = test system: BT474 and HN5 tumor cell lines; test: Methylene blue growth inhibition assay (cellular Method A); format: cell-based, Human; conditions: Homo sapiens, BT-474, 72 h, 3 days, read-out: Activity (Method): growth inhibition IC50 class
Experimental: Human breast (BT474) and head and neck (HN5) were cultured in low glucose DMEM (Life Technologies 12320-032) containing 10% fetal bovine serum (FBS). Human colon tumor cells (Colo205) were cultured in DMEM (Invitrogen, 10564) containing 10% FBS. The SV40 transformed human mammary epithelial cell line HB4a was transfected with either human H-ras cDNA (HB4a r4.2) or the human c-ErbB2 cDNA (HB4a c5.2). The HB4a clones were cultured in RPMI containing 10% FBS, insulin (5 g/mL), hydrocortisone (5 g/mL), supplemented with the selection agent hygromycin B (50 g/mL). All lines were grown in a humidified incubator at 37° C. in 95% air, 5% CO2. Cells were harvested using trypsin/EDTA, counted using a haemocytometer, and plated in 100 microliters of the appropriate media, at the following densities, in a 96-well tissue culture plate (Falcon 3075): BT474 10,000 cells/well, HN5 3,000 cells/well. The next day, compounds were diluted in DMEM containing […] gentamicin, at twice the final required concentration, from 10 mM stock solutions in DMSO. 100 microliters/well of these dilutions were added to the 100 microliters of media currently on the cell plates. Medium containing 0.6% DMSO was added to control wells. Compounds diluted in DMEM were added to all cell lines. The final concentration of DMSO in all wells was 0.3%. Cells were returned to the incubator (37° C., 10% CO2) for 3 days. Medium was then removed by aspiration. Cell biomass was estimated by staining cells with 90 microliters per well methylene blue (Sigma M9140, 0.5% in 1:1 ethanol:water), and incubation at rt for at least 30 minutes. Stain was removed, and the plates rinsed by immersion in deionized water and air-dried. To release stain from the cells 100 microliters of solubilization solution was added (1% N-lauroyl sarcosine, Sodium salt, Sigma L5125, in PBS), and plates were shaken gently for about 30 minutes. Optical density at 620 nm was measured on a microplate reader. Percent inhibition of cell growth was calculated relative to vehicle treated control wells. Concentration of compound that inhibits 50% of control cell growth (IC50) was interpolated using nonlinear regression (Levenberg-Marquardt) and the equation, y=Vmax*(1−(x/(K+x)))+Y2, where “K” was equal to the IC50. Method B: Celltiter Glo® Growth Inhibition Assays

[2] = target: T1, ErbB2 or EGFR; test: ErbB family substrate phosphorylation enzyme assay (HTRF), Method A or Method B; format: biochemical; conditions: Method B: enzyme mix pre-incubated with compound 1 hour at 20° C., started with substrate mix
T1 construct: enzymes purified from a baculovirus expression system; Reagent production was conducted essentially as described in Brignola, P. S., et al, (2002) J. Biol. Chem. 277(2): 1576-1585
Experimental: Compounds of the present invention were tested for EGFR, ErbB-2, and ErbB-4 protein tyrosine kinase inhibitory activity in substrate phosphorylation assays using enzymes purified from a baculovirus expression system. Reagent production was conducted essentially as described in Brignola, P. S., et al, (2002) J. Biol. Chem. 277(2): 1576-1585.
The method measures the ability of the isolated enzyme to catalyse the transfer of the gamma-phosphate from ATP onto the tyrosine residue of a biotinylated synthetic peptide referenced “Peptide C” in Brignola, P. S., et al, (2002) J. Biol. Chem. 277(2):1576-1585. The extent of tyrosine phosphorylation was measured using an anti-phosphotyrosine antibody, and quantified by homogenous time-resolved fluorescence (HTRF).
Reactions were performed in black 384-well polystyrene flat-bottom plates in a final volume of 20 ul. Assays were performed by adding 10 μl of each of the following solutions, substrate Mix and enzyme mix: The Substrate mix contained 100 mM 3-[N-morpholino]propanesulfonic acid (MOPS) (pH 7.5), 2 mM MnCl2, 20 μM ATP, 0.01% Tween-20, 0.1 mg/mL (BSA), 0.8 uM peptide substrate, and 1 mM dithiothreitol. The enzyme mix contained 100 mM MOPS (pH7.5); 0.01% Tween-20; 0.1 mg/mL BSA, and either 0.8 nM EGFR, 10 nM ErbB2, or 1 nM ErbB4
During the course of these studies, two separate methods have been used to measure the potency of compounds. In Method A, the substrate mix was added to the compound plates first, then the reaction was started by adding the enzyme mix. In Method B, the enzyme mix was added to the compound plates and the plates were incubated at 20° C. for 1 hour. The reactions were then started by adding the substrate mix.
After initiating the reaction with either method describe above, the reactions were allowed to proceed for 90 minutes at 20° C. The reactions were then terminated by the addition of 20 μl 100 mM EDTA to each well. 40 μl/well of HTRF detection mix were added to the assay plates. The final concentrations of the detection reagents were: 100 mM HEPES (pH7.5), 0.1 mg/mL BSA, 15 nM streptavidin-labeled allophycocyanin (PerkinElmer), and 1 nM europium-labeled anti-phosphotyrosine antibody (PerkinElmer). Assay plates were left unsealed and were counted in a Wallac Multilabel Counter 1420 (PerkinElmer).
Compounds under analysis were dissolved in Me2SO to 1.0 mM and serially diluted 1 to 3 with Me2SO through twelve dilutions. 1 μl of each concentration was transferred to the corresponding well of an assay plate. This creates a final compound concentration range from 0.00027 to 47.6 μM.
The data for dose responses were plotted as % Inhibition calculated with the data reduction formula 100*(1−(U1−C2)/(C1−C2)) versus concentration of compound where U is the unknown value, C1 is the average control value obtained for 4.76% DMSO, and C2 is the average control value obtained for 0.035 M EDTA. Data were fitted with a curve described by: y=((Vmax*x)/(K+x))+Y^2 where Vmax is the upper asymptote, Y2 is the Y intercept, and K is the IC50. The results for each compound were recorded as pIC50s, calculated as follows: pIC50=−Log 10(K)

IC50 [1] | SMILES | Activity (Method): pIC50 class against ErbB2 or EGFR [2]
< 100 nM | O=C(Nc1cccc(-c2nn3ccccc3c2-c2ccnc(Nc3cccc(F)c3)n2)c1)c1c(F)cccc1C(F)(F)F [Example 13, 2-Fluoro-N-(3-{3-[2-(3-fluoro-phenylamino)-pyrimidin-4-yl]-pyrazolo[1,5-a]pyridin-2-yl}-phenyl)-6-trifluoromethyl-benzamide] | +++ (B) (at least one pIC50 measurement of greater than 7 against either ErbB2 or EGFR)
< 100 nM | O=C(Nc1cccc(-c2nn3ccccc3c2-c2ccnc(Nc3cccc(F)c3)n2)c1)c1cccc(F)c1F [Example 14, 2,3-Difluoro-N-(3-{3-[2-(3-fluoro-phenylamino)-pyrimidin-4-yl]-pyrazolo[1,5-a]pyridin-2-yl}-phenyl)-benzamide] | +++ (B) (at least one pIC50 measurement of greater than 7 against either ErbB2 or EGFR)
100 to 1000 nM | O=C(Nc1cccc(-c2nn3ccccc3c2-c2ccnc(Nc3cccc(F)c3)n2)c1)c1ccc(F)cc1 [Example 15, 4-Fluoro-N-(3-{3-[2-(3-fluoro-phenylamino)-pyrimidin-4-yl]-pyrazolo[1,5-a]pyridin-2-yl}-phenyl)-benzamide] | +++ (B) (at least one pIC50 measurement of greater than 7 against either ErbB2 or EGFR)
< 100 nM | O=C(Nc1cccc(-c2nn3ccccc3c2-c2ccnc(Nc3cccc(F)c3)n2)c1)c1ccccc1C(F)(F)F [Example 16, N-(3-{3-[2-(3-Fluoro-phenylamino)-pyrimidin-4-yl]-pyrazolo[1,5-a]pyridin-2-yl}-phenyl)-2-trifluoromethyl-benzamide] | +++ (B) (at least one pIC50 measurement of greater than 7 against either ErbB2 or EGFR)
100 to 1000 nM | O=C(Nc1cccc(-c2nn3ccccc3c2-c2ccnc(Nc3cccc(F)c3)n2)c1)c1cccc(F)c1 [Example 17, 3-Fluoro-N-(3-{3-[2-(3-fluoro-phenylamino)-pyrimidin-4-yl]-pyrazolo[1,5-a]pyridin-2-yl}-phenyl)-benzamide] | +++ (B) (at least one pIC50 measurement of greater than 7 against either ErbB2 or EGFR)
100 to 1000 nM | Cc1cccc(C(=O)Nc2cccc(-c3nn4ccccc4c3-c3ccnc(Nc4cccc(F)c4)n3)c2)c1 [Example 18, N-(3-{3-[2-(3-Fluoro-phenylamino)-pyrimidin-4-yl]-pyrazolo[1,5-a]pyridin-2-yl}-phenyl)-3-methyl-benzamide] | ++ (B) (at least one pIC50 measurement greater than 6 against either ErbB2 or EGFR but no measurement greater than pIC50 of 7)
100 to 1000 nM | O=C(Nc1cccc(-c2nn3ccccc3c2-c2ccnc(Nc3cccc(F)c3)n2)c1)c1ccc(F)cc1F [Example 19, 2,4-Difluoro-N-(3-{3-[2-(3-fluoro-phenylamino)-pyrimidin-4-yl]-pyrazolo[1,5-a]pyridin-2-yl}-phenyl)-benzamide] | +++ (B) (at least one pIC50 measurement of greater than 7 against either ErbB2 or EGFR)
100 to 1000 nM | O=C(Nc1cccc(-c2nn3ccccc3c2-c2ccnc(Nc3cccc(F)c3)n2)c1)c1ccc(F)cc1Cl [Example 20, 2-Chloro-4-fluoro-N-(3-{3-[2-(3-fluoro-phenylamino)-pyrimidin-4-yl]-pyrazolo[1,5-a]pyridin-2-yl}-phenyl)-benzamide] | ++ (B) (at least one pIC50 measurement greater than 6 against either ErbB2 or EGFR but no measurement greater than pIC50 of 7)
100 to 1000 nM | O=C(Nc1cccc(-c2nn3ccccc3c2-c2ccnc(Nc3cccc(F)c3)n2)c1)c1c(F)ccc(F)c1Cl [Example 21, 2-Chloro-3,6-difluoro-N-(3-{3-[2-(3-fluoro-phenylamino)-pyrimidin-4-yl]-pyrazolo[1,5-a]pyridin-2-yl}-phenyl)-benzamide] | +++ (B) (at least one pIC50 measurement of greater than 7 against either ErbB2 or EGFR)
